Measured values taken from publication PMC8232238 (Cells, 2021).

Tests used:
[1] = system: acetylated tubulin in A549 cells; assay: Tubulin acetylation in A549 cells, immunostaining with high content imaging; assay type: cell-based, human; conditions: 24 h
Protocol: (§1) To confirm the observed activities of the selected test compounds against HDAC6, the acetylation status of tubulin in the human lung cancer cell line A549 was investigated by immunostaining combined with automated high content image analysis (see supplementary material for full details). […] The apparent drop in histone acetylation by both compounds above 10 μM is indicative of a potential cytotoxicity at higher concentrations (data not shown).
(§2) Figure 5 Cell-based assessment of HDAC activity and selectivity. Dose and time-dependency of tubulin and histone acetylation by test compounds. A549 cells were treated with (A,B) different concentrations (0–50 µM) of CF011, KNH019 and tubastatin for 24 h or with (C,D) 1 µM over different time intervals before (A,C) tubulin acetylation or (B,D) histone acetylation were automatically quantified using high content imaging. Data represent the average of four independent experiments with four replicate wells/experiments. The statistical significances of effects compared to the untreated control were analysed using Brown–Forsythe and Welch one-way ANOVA analyses using Graph Pad Prism. The significance was set as * 0.05 > p ≥ 0.01, ** 0.01 > p ≥ 0.002. Error bars represent the Standard Error of Mean (SEM). (E) Representative fluorescence images show tubulin acetylation (yellow), histone acetylation (red) and nuclear counterstain (DAPI, blue) after 24 h of exposure to test compounds. Secondary antibodies were detected using excitation/emission filters for CY3 (excitation: 542/27 nm, emission: 597/45 nm), CY5 (excitation: 632/22 nm, emission: 684/25 nm) and DAPI (excitation: 390/18 nm, emission: 435/48 nm), respectively. […]
(§3) S2.2 Cell Culture, Treatment and Immunostaining:
(§4) A549 cells (ATCC® CCL-185™, In Vitro Technologies Pty. Ltd., Victoria, Australia) were cultured in low glucose Dulbecco’s Modified Eagle Media (DMEM, 1 g/L glucose, 0.584 g/L L-glutamine, 3.7 g/L sodium bicarbonate, 10 % fetal bovine serum) under standard conditions (> 90 % humidity, 37 °C temperature, 5 % CO 2). For experiments, 5,000 cells/ well were seeded in 100 µl serum free DMEM in 384 well plates (µCLEAR®, Greiner) and left to adhere for 24 hours before the treatment. Cells were treated with 100 µl of test compound -containing media for up to 24 hours before cells were fixed with 4 % paraformaldehyde (PFA) solution in PBS (10 minutes at room temperature (RT)) and permeabi lized with 50 µl of 0.5 % Triton X -100 in PBS. Subsequently, cells were blocked in PBST (5% fetal bovine serum, 5% bovine serum albumin, 5% goat serum, 0.1% Tween 20 in PBS) before stained with anti - acetylated tubulin (T7451, Sigma Aldrich; 1:1,000) and an ti-acetylated histone antibody (ab47915, Abcam; 1:1,000) overnight at 4 °C. Subsequently, cells were exposed to secondary antibodies (goat anti-mouse Alexa fluor 594 (Invitrogen; 1:10,000) and goat anti -rabbit Alexa fluor 647 (Invitrogen; 1:10,000) in PBST ) and DAPI solution (Invitrogen; 1:10,000 in PBST) before images were acquired.
(§5) Fluorescence images were acquired (10x magnification, 2 -D format) using the InCell 2200 high content imaging system (V7.3, GE Healthcare life sciences) wi th CY3 (excitation: 542/27 nm, emission: 597/45 nm), CY5 (excitation: 632/22 nm, emission: 684/25 nm) and DAPI (excitation: 390/18 nm, emission:
435/48 nm) filters. Two images/well at predefined positions were automatically acquired with 4 replicate wells for each treatment condition/ experiment. At least 3 independent experiments were conducted for each condition. Acquired images were automatically processed using InCarta software (v1.6, GE Healthcare life sciences). All images were manually checked for ar tefacts. Images with less than 30 cells were excluded from the analysis. Excel and GraphPad Prism was used for statistical analysis and graphical representation. Data was expressed as % Relative Fluorescence Units (RFU) […]

[2] = system: acetylated histone in A549 cells; assay: Histone acetylation in A549 cells, immunostaining with high content imaging; assay type: cell-based, human; conditions: 24 h
Protocol: as §1, §2, §3, §4, §5
435/48 nm) filters. […] Data was expressed as % Relative Fluorescence Units (RFU) […]

O=C(CCCCCN1C(=O)c2cccc3cc(NC(=O)c4ccccc4)cc(c23)C1=O)NO [KNH019]
Increase of tubulin acetylation compared to untreated cells (up to) ([1]; 0-50 µM, dose-dependent): ~1.5 fold
Tubulin acetylation in representative immunostaining images ([1]; 10 µM): strongly induce
Concentration from which tubulin acetylation was significantly increased ([1]; compared to untreated cells): 10^−6 mM
Histone acetylation in representative immunostaining images ([2]; 10 µM): strongly induce
Concentration from which histone acetylation was significantly increased ([2]; compared to untreated cells): 10^−2 mM
